Results on two compounds are retold here after PMC11191600 (ACS chemical neuroscience, 2024).

Series [1] deals with T1, human dopamine D4.4 receptor (Homo sapiens, UniProt P21917).
T1 sequence (P21917 1-419): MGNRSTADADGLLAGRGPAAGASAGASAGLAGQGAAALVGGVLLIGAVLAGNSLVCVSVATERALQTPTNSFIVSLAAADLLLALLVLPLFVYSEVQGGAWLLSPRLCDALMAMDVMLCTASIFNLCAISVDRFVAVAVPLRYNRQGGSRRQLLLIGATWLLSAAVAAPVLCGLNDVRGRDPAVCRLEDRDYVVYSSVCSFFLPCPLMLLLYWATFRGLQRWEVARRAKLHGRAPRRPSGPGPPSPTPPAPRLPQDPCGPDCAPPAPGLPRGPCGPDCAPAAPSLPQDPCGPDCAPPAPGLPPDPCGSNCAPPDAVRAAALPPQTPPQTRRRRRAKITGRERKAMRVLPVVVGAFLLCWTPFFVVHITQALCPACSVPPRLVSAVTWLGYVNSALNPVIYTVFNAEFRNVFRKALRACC
Nature of the series: Human dopamine D4.4 receptor radioligand binding assay (Eurofins). Particulars: Eurofins Discovery; for % Inhibition at 10 μM D4.4: [3H]Spiperone binding; for IC50: read-out: D4.4 IC50; for Ki: read-out: D4.4 Ki.

The target in series [2] is human dopamine D2S receptor (Homo sapiens, UniProt P14416). Nature of the series: Human dopamine D2S receptor radioligand binding assay (Eurofins). Particulars: 10 μM; [3H]Spiperone binding; Eurofins Discovery.
Sequence of human dopamine D2S receptor (P14416 1-414 isoform P14416-2): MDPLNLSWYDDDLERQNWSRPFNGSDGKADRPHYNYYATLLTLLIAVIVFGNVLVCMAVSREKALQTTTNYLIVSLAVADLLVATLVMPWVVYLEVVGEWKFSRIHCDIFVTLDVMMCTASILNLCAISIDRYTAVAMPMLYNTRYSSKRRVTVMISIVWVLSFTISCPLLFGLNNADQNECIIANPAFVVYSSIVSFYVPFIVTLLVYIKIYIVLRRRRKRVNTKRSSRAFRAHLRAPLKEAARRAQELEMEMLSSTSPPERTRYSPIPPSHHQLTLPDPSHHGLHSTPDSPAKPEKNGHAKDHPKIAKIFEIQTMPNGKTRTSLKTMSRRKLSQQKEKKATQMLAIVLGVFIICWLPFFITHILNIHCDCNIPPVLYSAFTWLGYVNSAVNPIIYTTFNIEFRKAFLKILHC
Series [3] deals with Human recombinant dopamine D2L receptor (Homo sapiens, UniProt P14416). Nature of the series: Human dopamine D2L receptor radioligand binding assay (Eurofins). Particulars: 10 μM; [3H]Spiperone binding; Eurofins Discovery.
Sequence of Human recombinant dopamine D2L receptor (P14416 whole entry): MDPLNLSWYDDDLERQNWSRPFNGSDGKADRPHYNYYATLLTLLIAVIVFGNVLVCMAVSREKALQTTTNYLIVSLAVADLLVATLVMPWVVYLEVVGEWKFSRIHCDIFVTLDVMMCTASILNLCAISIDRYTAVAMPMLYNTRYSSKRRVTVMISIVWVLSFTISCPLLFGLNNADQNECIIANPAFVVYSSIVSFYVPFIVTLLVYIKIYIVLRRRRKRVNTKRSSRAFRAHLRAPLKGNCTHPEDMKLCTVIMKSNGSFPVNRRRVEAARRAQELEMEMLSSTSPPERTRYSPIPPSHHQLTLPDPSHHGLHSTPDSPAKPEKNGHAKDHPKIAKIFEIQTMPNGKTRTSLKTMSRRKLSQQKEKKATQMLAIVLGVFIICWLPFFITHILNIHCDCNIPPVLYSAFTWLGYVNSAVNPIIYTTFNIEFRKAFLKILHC
For series [4], the target named is human dopamine D3 receptor (Homo sapiens, UniProt P35462). Nature of the series: Human dopamine D3 receptor radioligand binding assay (Eurofins). The note with it: 10 μM; [3H]Spiperone binding; Eurofins Discovery.
Sequence of human dopamine D3 receptor (P35462 whole entry): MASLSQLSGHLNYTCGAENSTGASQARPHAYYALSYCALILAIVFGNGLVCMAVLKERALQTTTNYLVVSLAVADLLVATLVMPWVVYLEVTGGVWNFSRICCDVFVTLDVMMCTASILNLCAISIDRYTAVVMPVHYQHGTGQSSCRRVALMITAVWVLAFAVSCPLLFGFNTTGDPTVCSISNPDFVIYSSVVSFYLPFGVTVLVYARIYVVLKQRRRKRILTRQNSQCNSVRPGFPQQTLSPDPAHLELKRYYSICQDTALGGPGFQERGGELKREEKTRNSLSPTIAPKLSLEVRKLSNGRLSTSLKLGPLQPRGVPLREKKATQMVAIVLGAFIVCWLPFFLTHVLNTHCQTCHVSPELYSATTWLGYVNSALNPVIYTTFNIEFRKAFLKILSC
For series [5], the target named is human dopamine D1 receptor (Homo sapiens, UniProt P21728). Nature of the series: Human dopamine D1 receptor radioligand binding assay (Eurofins). Particulars: 10 μM; [3H]SCH-23390 binding; Eurofins Discovery.
Sequence of human dopamine D1 receptor (P21728 whole entry): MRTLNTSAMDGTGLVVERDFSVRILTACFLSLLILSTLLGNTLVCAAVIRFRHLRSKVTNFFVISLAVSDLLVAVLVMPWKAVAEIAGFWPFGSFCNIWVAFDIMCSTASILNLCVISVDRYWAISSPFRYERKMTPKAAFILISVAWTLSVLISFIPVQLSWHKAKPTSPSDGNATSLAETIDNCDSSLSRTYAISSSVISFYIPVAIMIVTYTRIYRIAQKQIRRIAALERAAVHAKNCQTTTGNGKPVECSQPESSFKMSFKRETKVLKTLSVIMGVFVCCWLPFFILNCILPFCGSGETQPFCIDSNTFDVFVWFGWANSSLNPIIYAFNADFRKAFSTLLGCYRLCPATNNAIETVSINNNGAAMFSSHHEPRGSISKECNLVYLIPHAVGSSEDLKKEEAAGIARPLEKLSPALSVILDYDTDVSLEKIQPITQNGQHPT
Series [6] is described as follows: Plasma protein binding, equilibrium dialysis, human plasma. The format is in vitro ADME.
A short description of series [7]: Plasma protein binding, equilibrium dialysis, rat plasma. The format is in vitro ADME.
Series [8] in a line: Microsomal stability, human hepatic microsomes. The note with it: predicted hepatic clearance. The series is classed as in vitro ADME.
The nature of series [9]: Microsomal stability, rat hepatic microsomes. The format is in vitro ADME. The note with it: predicted hepatic clearance.
Series [10] is described as follows: In vivo pharmacokinetics, intravenous cassette dosing in rats. The arrangement: species or system male Sprague-Dawley rats. The note with it: rat; for AUC (area under the curve) / CLp (plasma clearance) / Vss (volume of distribution at steady-state) / t1/2 (terminal phase plasma half-life): intravenous 0.2 mg/kg, cassette; for in vivo clearance relative to hepatic blood flow (superhepatic clearance): intravenous dosing.

A short description of series [11]: Kinetic solubility (shake flask, McIlvaine buffer). The note with it: kinetic, 100 µM, 18 hours room temperature; for Solubility pH = 2.2: McIlvaine buffer pH 2.2; for Solubility pH = 6.8: McIlvaine buffer pH 6.8. The format is physicochemical.
The nature of series [12]: Metabolite profiling in human hepatocytes. The series is classed as in vitro ADME. Particulars: 4 h.
Series [13] in a line: Metabolite profiling in rat hepatocytes. The series is classed as in vitro ADME. Particulars: 4 h.

Some results are limits rather than exact numbers.

Regarding `O=C(c1ccc2c(c1)OCO2)N1CC2(CCN(Cc3c[nH]c4cc(F)ccc34)CC2)C1` [Compound 20], in series [1], the “% Inhibition at 10 μM D4.4” value came to 95%, the IC50 was determined as 84 nM and the inhibition constant (Ki) amounted to 23 nM. The “% Inhibition at 10 μM D2S” value in series [2] is given as 12%. Also, the “% Inhibition at 10 μM D2L” value in series [3] is on record as 18%. Also, in series [4], the “% Inhibition at 10 μM D3” value was determined as 14%. The “% Inhibition at 10 μM D1” value in series [5] amounted to 16%. In series [6], the “fu,plasma human (fraction unbound)” value amounted to 0.10. For the same compound, the “fu,plasma rat (fraction unbound)” value in series [7] is recorded as 0.23. Moreover, in series [8], the “CLH human (hepatic clearance)” value was 13.7 mL/min/kg. The “CLH rat (hepatic clearance)” value in series [9] was 36.2 mL/min/kg. Besides, in [10], the “AUC (area under the curve)” value turned out to be 26.4 ng·h/mL, the “CLp (plasma clearance)” value was 126 mL/min/kg, the “Vss (volume of distribution at steady-state)” value is given as 44.4 L/kg and the “t1/2 (terminal phase plasma half-life)” value was determined as 4.55 h. Also, in series [10], the “in vivo clearance relative to hepatic blood flow (superhepatic clearance)” value is more than 100 % Qh. For the same compound, in [11], the “Solubility pH = 2.2” value is reported as 86.4 µM and the “Solubility pH = 6.8” value was determined as 82.7 µM.

As for `Cc1ccccc1C(=O)N1CC2(CCN(Cc3c[nH]c4cc(F)ccc34)CC2)C1` [Compound 33], in series [1], the “% Inhibition at 10 μM D4.4” value is on record as 93%, the IC50 was 210 nM and the Ki stood at 59 nM. Further, the “% Inhibition at 10 μM D2S” value in [2] is 0%. Also, the “% Inhibition at 10 μM D2L” value in [3] is −7%. The “% Inhibition at 10 μM D3” value in series [4] is on record as 11%. Moreover, the “% Inhibition at 10 μM D1” value in [5] is 9%. The “fu,plasma human (fraction unbound)” value in series [6] was 0.19. In addition, the “fu,plasma rat (fraction unbound)” value in series [7] was 0.26. Also, the “CLH human (hepatic clearance)” value in [8] is reported as 16.0 mL/min/kg. The “CLH rat (hepatic clearance)” value in [9] is 39.0 mL/min/kg. Besides, in [10], the “AUC (area under the curve)” value was determined as 27.0 ng·h/mL, the “CLp (plasma clearance)” value is 123 mL/min/kg, the “Vss (volume of distribution at steady-state)” value was 36.9 L/kg and the “t1/2 (terminal phase plasma half-life)” value was 4.02 h. In addition, the “in vivo clearance relative to hepatic blood flow (superhepatic clearance)” value in [10] was more than 100 % Qh. In [12], the “piperidine N-dealkylation metabolite, relative percentage” value was determined as 6.3% and the turnover in hepatocytes entry is on record as “low turnover”. Also, the “parent compound remaining postincubation” value in [12] (LC/MS relative percentage) is 87.9%. Further, in [13], the “piperidine N-dealkylation metabolite, relative percentage” value turned out to be 32.4% and the turnover in hepatocytes entry is on record as “moderate turnover”. The “parent compound remaining postincubation” value in series [13] (LC/MS relative percentage) worked out at 65.8%. For the same compound, in [11], the “Solubility pH = 2.2” value is given as 92.9 µM and the “Solubility pH = 6.8” value is reported as 87.7 µM.

As a reminder, the % Inhibition is the drop in the measured response relative to a control, in per cent. The term IC50 denotes the concentration needed to halve the response being measured. By Ki is commonly meant the equilibrium dissociation constant of an inhibitor or competing ligand from its target.
